What was measured:
Assay in all cases: Test C greenhouse herbicide test, pre- and postemergence
Assay type in all cases: in vivo
[1] = test system: blackgrass (Alopecurus myosuroides)
From the text: (§1) Seeds of plant species selected from blackgrass (Alopecurus myosuroides), ryegrass, Italian (Italian ryegrass, Lolium multiflorum), wheat (winter wheat, Triticum aestivum), galium (catchweed bedstraw, Galium aparine), corn (Zea mays), large crabgrass, large (large crabgrass, Digitaria sanguinalis), foxtail, giant (giant foxtail, Setaria faberii), johnsongrass (Sorghum halepense), lambsquarters (Chenopodium album), morningglory (Ipomoea coccinea), nutsedge, yellow (yellow nutsedge, Cyperus esculentus), pigweed (Amaranthus retroflexus), ragweed (common ragweed, Ambrosia elatior), soybean (Glycine max), barnyardgrass (Echinochloa crus-galli), oilseed rape (Brassica napus), waterhemp (common waterhemp, Amaranthus rudis), and velvetleaf (Abutilon theophrasti) were planted into a blend of loam soil and sand and treated preemergence with test chemicals formulated in a non-phytotoxic solvent mixture which included a surfactant.
(§2) At the same time, plants selected from these crop and weed species and also chickweed (common chickweed, Stellaria media), kochia (Kochia scoparia), and oat, wild (wild oat, Avena fatua), were planted in pots containing Redi-Earth® planting medium (Scotts Company, 14111 Scottslawn Road, Marysville, Ohio 43041) comprising spaghnum peat moss, vermiculite, wetting agent and starter nutrients and treated with postemergence applications of test chemicals formulated in the same manner. Plants ranged in height from 2 to 18 cm (1- to 4-leaf stage) for postemergence treatments. Treated plants and controls were maintained in a greenhouse for 13 to 15 d, after which time all species were compared to controls and visually evaluated. Plant response ratings, summarized in Table C, are based on a scale of 0 to 100 where 0 is no effect and 100 is complete control. A dash (-) response means no test result.

[2] = test system: nutsedge, yellow (yellow nutsedge, Cyperus esculentus)
From the text: as §1, §2

[3] = test system: barnyardgrass (Echinochloa crus-galli)
From the text: as §1, §2

[4] = test system: velvetleaf (Abutilon theophrasti)
From the text: as §1, §2

[5] = test system: crabgrass, large (large crabgrass, Digitaria sanguinalis)
From the text: as §1, §2

soybean (Glycine max) = test system: soybean (Glycine max)
From the text: as §1, §2

corn (Zea mays) = test system: corn (Zea mays)
From the text: as §1, §2

[6] = test system: lambsquarters (Chenopodium album)
From the text: as §1, §2

[7] = test system: foxtail, giant (giant foxtail, Setaria faberii)
From the text: as §1, §2

[8] = test system: pigweed (Amaranthus retroflexus)
From the text: as §1, §2

[9] = test system: wheat (winter wheat, Triticum aestivum)
From the text: as §1, §2

[10] = test system: waterhemp (common waterhemp, Amaranthus rudis)
From the text: as §1, §2

[11] = test system: galium (catchweed bedstraw, Galium aparine)
From the text: as §1, §2

[12] = test system: morningglory (Ipomoea coccinea)
From the text: as §1, §2

[13] = test system: ryegrass, Italian (Italian ryegrass, Lolium multiflorum)
From the text: as §1, §2

[14] = Postemergence, 31 g ai/ha, 0 to 100 scale (0 no effect, 100 complete control)
[15] = Postemergence, 125 g ai/ha, scale 0 to 100, 0 is no effect, 100 is complete control
[16] = Postemergence, 250 g ai/ha, scale 0 to 100, 0 no effect, 100 complete control, 13 to 15 d
[17] = Preemergence, 31 g ai/ha, scale 0 to 100, 0 is no effect, 100 is complete control
[18] = Preemergence, 62 g ai/ha, scale 0 to 100, 0 is no effect, 100 is complete control
[19] = Preemergence, 125 g ai/ha, scale 0 to 100, 0 is no effect, 100 is complete control
[20] = Preemergence, 250 g ai/ha, scale 0 to 100, 0 no effect, 100 complete control
[21] = postemergence, 62 g ai/ha, scale 0 to 100, 0 no effect, 100 complete control

Cc1ccc2ccccc2c1-c1c(O)c(Br)nn(C)c1=O [Compound 23]
Blackgrass plant response rating [1, 14]: 50
Plant response rating, Blackgrass [1, 15]: 70
Plant response rating, Blackgrass [1, 16]: 85
Plant response rating, Blackgrass [1, 17]: 45
Plant response rating, Blackgrass [1, 18]: 85
Plant response rating, Blackgrass [1, 19]: 90
Blackgrass plant response rating [1, 20]: 90
Blackgrass plant response rating [1, 21]: 60
Nutsedge, Yellow plant response rating [2, 14]: 60
Plant response rating, Nutsedge, Yellow [2, 15]: 85
Plant response rating, Nutsedge, Yellow [2, 16]: 85
Plant response rating, Nutsedge, Yellow [2, 17]: 40
Plant response rating, Nutsedge, Yellow [2, 18]: 90
Plant response rating, Nutsedge, Yellow [2, 19]: 85
Nutsedge, Yellow plant response rating [2, 20]: 90
Nutsedge, Yellow plant response rating [2, 21]: 70
Barnyardgrass plant response rating [3, 14]: 40
Plant response rating, Barnyardgrass [3, 15]: 75
Plant response rating, Barnyardgrass [3, 16]: 85
Plant response rating, Barnyardgrass [3, 17]: 10
Plant response rating, Barnyardgrass [3, 18]: 85
Plant response rating, Barnyardgrass [3, 19]: 85
Barnyardgrass plant response rating [3, 20]: 85
Barnyardgrass plant response rating [3, 21]: 60
Velvetleaf plant response rating [4, 14]: 70
Plant response rating, Velvetleaf [4, 15]: 85
Plant response rating, Velvetleaf [4, 16]: 90
Plant response rating, Velvetleaf [4, 18]: 90
Plant response rating, Velvetleaf [4, 19]: 100
Velvetleaf plant response rating [4, 20]: 100
Velvetleaf plant response rating [4, 21]: 85
Crabgrass, Large plant response rating [5, 14]: 5
Plant response rating, Crabgrass, Large [5, 15]: 35
Plant response rating, Crabgrass, Large [5, 16]: 45
Plant response rating, Crabgrass, Large [5, 17]: 5
Plant response rating, Crabgrass, Large [5, 18]: 45
Plant response rating, Crabgrass, Large [5, 19]: 75
Crabgrass, Large plant response rating [5, 20]: 95
Crabgrass, Large plant response rating [5, 21]: 20
Soybean plant response rating (soybean (Glycine max); [14]): 5
Plant response rating, Soybean (soybean (Glycine max); [15]): 10
Plant response rating, Soybean (soybean (Glycine max); [16]): 15
Plant response rating, Soybean (soybean (Glycine max); [18]): 0
Plant response rating, Soybean (soybean (Glycine max); [19]): 5
Soybean plant response rating (soybean (Glycine max); [20]): 55
Soybean plant response rating (soybean (Glycine max); [21]): 10
Corn plant response rating (corn (Zea mays); [14]): 10
Plant response rating, Corn (corn (Zea mays); [15]): 10
Plant response rating, Corn (corn (Zea mays); [16]): 25
Plant response rating, Corn (corn (Zea mays); [17]): 0
Plant response rating, Corn (corn (Zea mays); [18]): 0
Plant response rating, Corn (corn (Zea mays); [19]): 30
Corn plant response rating (corn (Zea mays); [20]): 65
Corn plant response rating (corn (Zea mays); [21]): 30
Lambsquarters plant response rating [6, 14]: 85
Plant response rating, Lambsquarters [6, 15]: 95
Plant response rating, Lambsquarters [6, 16]: 98
Plant response rating, Lambsquarters [6, 17]: 85
Plant response rating, Lambsquarters [6, 18]: 85
Plant response rating, Lambsquarters [6, 19]: 95
Lambsquarters plant response rating [6, 20]: 95
Lambsquarters plant response rating [6, 21]: 95
Foxtail, Giant plant response rating [7, 14]: 30
Plant response rating, Foxtail, Giant [7, 15]: 85
Plant response rating, Foxtail, Giant [7, 16]: 90
Plant response rating, Foxtail, Giant [7, 17]: 30
Plant response rating, Foxtail, Giant [7, 18]: 85
Plant response rating, Foxtail, Giant [7, 19]: 85
Foxtail, Giant plant response rating [7, 20]: 100
Foxtail, Giant plant response rating [7, 21]: 65
Pigweed plant response rating [8, 14]: 90
Plant response rating, Pigweed [8, 15]: 98
Plant response rating, Pigweed [8, 16]: 98
Plant response rating, Pigweed [8, 17]: 100
Plant response rating, Pigweed [8, 18]: 100
Plant response rating, Pigweed [8, 19]: 100
Pigweed plant response rating [8, 20]: 100
Pigweed plant response rating [8, 21]: 98
Wheat plant response rating [9, 14]: 10
Plant response rating, Wheat [9, 15]: 35
Plant response rating, Wheat [9, 16]: 30
Plant response rating, Wheat [9, 18]: 85
Plant response rating, Wheat [9, 19]: 90
Wheat plant response rating [9, 20]: 90
Wheat plant response rating [9, 21]: 30
Waterhemp plant response rating [10, 14]: 80
Plant response rating, Waterhemp [10, 15]: 85
Plant response rating, Waterhemp [10, 16]: 98
Plant response rating, Waterhemp [10, 18]: 100
Plant response rating, Waterhemp [10, 19]: 100
Waterhemp plant response rating [10, 20]: 100
Waterhemp plant response rating [10, 21]: 55
Galium plant response rating [11, 14]: 95
Plant response rating, Galium [11, 15]: 100
Plant response rating, Galium [11, 16]: 100
Plant response rating, Galium [11, 17]: 98
Plant response rating, Galium [11, 18]: 100
Plant response rating, Galium [11, 19]: 100
Galium plant response rating [11, 20]: 100
Galium plant response rating [11, 21]: 100
Morningglory plant response rating [12, 14]: 100
Plant response rating, Morningglory [12, 15]: 100
Plant response rating, Morningglory [12, 16]: 100
Plant response rating, Morningglory [12, 17]: 85
Plant response rating, Morningglory [12, 18]: 90
Plant response rating, Morningglory [12, 19]: 95
Morningglory plant response rating [12, 20]: 98
Morningglory plant response rating [12, 21]: 100
Ryegrass, Italian plant response rating [13, 14]: 85
Plant response rating, Ryegrass, Italian [13, 15]: 95
Plant response rating, Ryegrass, Italian [13, 16]: 95
Plant response rating, Ryegrass, Italian [13, 17]: 85
Plant response rating, Ryegrass, Italian [13, 18]: 90
Plant response rating, Ryegrass, Italian [13, 19]: 95
Ryegrass, Italian plant response rating [13, 20]: 95
Ryegrass, Italian plant response rating [13, 21]: 90

CC(=O)Oc1c(Cl)nn(C)c(=O)c1-c1c(C)sc2ccc(C(F)(F)F)cc12 [Compound 152]
Plant response rating, Blackgrass [1, 17]: 5
Plant response rating, Blackgrass [1, 18]: 5
Plant response rating, Blackgrass [1, 19]: 30
Blackgrass plant response rating [1, 20]: 35
Plant response rating, Nutsedge, Yellow [2, 17]: 5
Plant response rating, Nutsedge, Yellow [2, 18]: 20
Plant response rating, Nutsedge, Yellow [2, 19]: 55
Nutsedge, Yellow plant response rating [2, 20]: 85
Plant response rating, Barnyardgrass [3, 17]: 5
Plant response rating, Barnyardgrass [3, 18]: 5
Plant response rating, Barnyardgrass [3, 19]: 30
Barnyardgrass plant response rating [3, 20]: 70
Plant response rating, Velvetleaf [4, 17]: 15
Plant response rating, Velvetleaf [4, 18]: 40
Plant response rating, Velvetleaf [4, 19]: 65
Velvetleaf plant response rating [4, 20]: 75
Plant response rating, Crabgrass, Large [5, 17]: 0
Plant response rating, Crabgrass, Large [5, 18]: 0
Plant response rating, Crabgrass, Large [5, 19]: 10
Crabgrass, Large plant response rating [5, 20]: 10
Plant response rating, Soybean (soybean (Glycine max); [17]): 0
Plant response rating, Soybean (soybean (Glycine max); [18]): 5
Plant response rating, Soybean (soybean (Glycine max); [19]): 5
Soybean plant response rating (soybean (Glycine max); [20]): 10
Plant response rating, Corn (corn (Zea mays); [17]): 15
Plant response rating, Corn (corn (Zea mays); [18]): 10
Plant response rating, Corn (corn (Zea mays); [19]): 10
Corn plant response rating (corn (Zea mays); [20]): 15
Plant response rating, Lambsquarters [6, 17]: 50
Plant response rating, Lambsquarters [6, 18]: 75
Plant response rating, Lambsquarters [6, 19]: 90
Lambsquarters plant response rating [6, 20]: 98
Plant response rating, Foxtail, Giant [7, 17]: 0
Plant response rating, Foxtail, Giant [7, 18]: 35
Plant response rating, Foxtail, Giant [7, 19]: 65
Foxtail, Giant plant response rating [7, 20]: 90
Plant response rating, Pigweed [8, 17]: 80
Plant response rating, Pigweed [8, 18]: 100
Plant response rating, Pigweed [8, 19]: 100
Pigweed plant response rating [8, 20]: 100
Plant response rating, Wheat [9, 17]: 0
Plant response rating, Wheat [9, 18]: 10
Plant response rating, Wheat [9, 19]: 25
Wheat plant response rating [9, 20]: 85
Plant response rating, Waterhemp [10, 17]: 20
Plant response rating, Waterhemp [10, 18]: 85
Plant response rating, Waterhemp [10, 19]: 85
Waterhemp plant response rating [10, 20]: 75
Plant response rating, Galium [11, 17]: 50
Plant response rating, Galium [11, 18]: 45
Plant response rating, Galium [11, 19]: 95
Galium plant response rating [11, 20]: 100
Plant response rating, Morningglory [12, 17]: 10
Plant response rating, Morningglory [12, 18]: 40
Plant response rating, Morningglory [12, 19]: 75
Morningglory plant response rating [12, 20]: 90
Plant response rating, Ryegrass, Italian [13, 17]: 10
Plant response rating, Ryegrass, Italian [13, 18]: 50
Plant response rating, Ryegrass, Italian [13, 19]: 90
Ryegrass, Italian plant response rating [13, 20]: 90

From patent publication US10597388B2, “Pyridazinone herbicides” (FMC CORPORATION, priority 2014, dated 2020)
